The structures appear in SMILES notation. Calls of active or inactive are those of the source. No cut-off for these calls is given here. Where only a bound is given, the exact number is not on record here.

As usually defined, the Ki is a dissociation constant, usually derived from enzyme kinetics or from competition with a known ligand. A higher Ki goes with lower affinity.

Series [1] has as its system Brain. Kind of series: Ratio of drug uptake in ddY mouse brain at 23.4 to 48.2 kBq, iv measured at 2 mins to drug uptake in ddY mouse brain at 23.4 to 48.2 kBq, iv measured at 60 mins. The following applies: in vivo.
The test system of series [2] is Brain. Kind of series: Biodistribution in Tg2576 ddY mouse brain at 23.4 to 48.2 kBq, iv measured at 2 to 10 mins by autoradiography. It counts as ADME, organism-based. To be noted: in vivo.
The target in series [3] is T1, Amyloid-beta precursor protein (Homo sapiens, UniProt P05067). Kind of series: Displacement of [125I]IMPY from amyloid beta (1 to 42) (unknown origin) after 3 hrs by gamma counting.
The target of series [4] is T1, Amyloid-beta precursor protein. In words: Ratio of AV-45 Ki to compound Ki for amyloid beta (1 to 42) (unknown origin) […] by gamma counting.
The subject of series [5] is Mus musculus. In words: Ex vivo binding affinity to beta-amyloid plaque in Tg2576 mouse brain at 5.5 MBq, iv measured at 1 hr by Thioflavin-S fluorescence microscopy. It counts as functional, organism-based. To be noted: 5.5 M, tested as the 18F-labelled form.
Series [6] concerns Mus musculus. Kind of series: Ex vivo binding affinity to beta-amyloid plaque in wild-type mouse brain at 5.5 MBq, iv measured at 1 hr by Thioflavin-S fluorescence microscopy. It counts as functional, organism-based. The following applies: 5.5 M, tested as the 18F-labelled form.
The nature of series [7]: Drug uptake in Alzheimer's disease patient white matter at 370 kBq/100 uL after 1 hr by thioflavin-S based autoradiography. The following applies: human, in vitro. It counts as ADME, tissue-based.
The target in series [8] is T1, Amyloid-beta precursor protein. Kind of series: Binding affinity to beta-amyloid plaque in Alzheimer's disease patient brain cortex after 1 hr by thioflavin-S based autoradiography.
The test system of series [9] is Brain. Kind of series: Biodistribution in Tg2576 ddY mouse brain at 23.4 to 48.2 kBq, iv measured at 60 mins by autoradiography. It counts as ADME, organism-based. The following applies: in vivo, 1 h.
Series [10] has as its system Mus musculus. In words: Biodistribution in Tg2576 ddY mouse anterior commissure at 5.5 MBq, iv by autoradiography. It counts as ADME, organism-based. To be noted: in vivo.
In series [11] the test system is Mus musculus. In words: Biodistribution in Tg2576 ddY mouse olfactory tract at 5.5 MBq, iv by autoradiography. The following applies: in vivo. It counts as ADME, organism-based.
Series [12] relates to Mus musculus. Kind of series: Biodistribution in Tg2576 ddY mouse corpus callosum at 5.5 MBq, iv by autoradiography. It counts as ADME, organism-based. To be noted: in vivo.
Series [13] deals with Mus musculus. Kind of series: Biodistribution in Tg2576 ddY mouse external capsule at 5.5 MBq, iv by autoradiography. It counts as ADME, organism-based. To be noted: in vivo.

T1 sequence (P05067 whole entry): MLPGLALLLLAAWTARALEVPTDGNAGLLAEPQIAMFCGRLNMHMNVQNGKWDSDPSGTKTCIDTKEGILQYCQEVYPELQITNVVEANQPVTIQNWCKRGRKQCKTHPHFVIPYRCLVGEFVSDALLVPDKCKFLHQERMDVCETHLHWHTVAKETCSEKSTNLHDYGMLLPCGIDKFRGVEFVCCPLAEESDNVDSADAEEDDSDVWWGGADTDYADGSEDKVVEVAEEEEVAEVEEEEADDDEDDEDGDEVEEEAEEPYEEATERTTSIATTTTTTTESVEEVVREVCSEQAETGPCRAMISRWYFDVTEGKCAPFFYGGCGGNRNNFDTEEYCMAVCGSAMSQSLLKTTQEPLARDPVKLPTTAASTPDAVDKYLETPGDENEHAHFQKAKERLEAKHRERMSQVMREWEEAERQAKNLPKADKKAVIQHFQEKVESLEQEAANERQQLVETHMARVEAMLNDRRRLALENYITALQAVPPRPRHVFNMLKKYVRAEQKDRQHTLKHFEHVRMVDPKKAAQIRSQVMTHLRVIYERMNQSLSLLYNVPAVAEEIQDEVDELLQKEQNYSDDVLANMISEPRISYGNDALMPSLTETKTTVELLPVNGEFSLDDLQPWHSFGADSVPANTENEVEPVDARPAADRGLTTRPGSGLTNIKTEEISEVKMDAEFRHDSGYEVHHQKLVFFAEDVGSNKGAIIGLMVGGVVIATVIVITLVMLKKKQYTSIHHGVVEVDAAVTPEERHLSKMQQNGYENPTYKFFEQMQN

With `CNc1ccc(/C=C/c2ccc(OCCOCCOCC[18F])nc2)cc1` [FLORBETAPIR F 18], in the series on Brain [1], the Ratio was determined as 3.8. Moreover, the Drug uptake entry in the series with Brain [2] is “Active”.
For the compound `CNc1ccc(/C=C/c2ccc(OCCOCCOCCF)nc2)cc1` [FLORBETAPIR], in [3], the inhibitory constant (Ki) turned out to be 12.8 nM.
Consider `CN(C)c1ccc(-c2cnc3cc(OCCF)ccc3n2)cc1`, for which the Ratio Ki in [4] stood at 10. This compound had a Ki in [3] of 0.895 nM. Also, the outcome in the series on Mus musculus [5] and in the series with Mus musculus [6] was Active.
For the compound `CNc1ccc(-c2cnc3cc(OCC[18F])ccc3n2)cc1`, in the series on Brain [1], the Ratio stood at 2.36. For the same compound, the Drug uptake entry in [7] is “Not Active”; in the series with Brain [2], 4.69 % ID/g; in the series with Brain [9], 1.48 % ID/g. The Ki in series [8] was determined as 15.7 nM.
Regarding `Nc1ccc(-c2cnc3cc(OCC[18F])ccc3n2)cc1`, the Ratio in the series with Brain [1] is listed as 2.36. The Drug uptake entry in series [7] is on record as “Active”; with Brain [2] it was 4.69 % ID/g; with Brain [9], 1.48 % ID/g. Further, the Ki in series [8] was > 242 nM.
Regarding `CNc1ccc(-c2cnc3ccc(OCC[18F])cc3n2)cc1`, the Ratio with Brain [1] is 2.36. The Drug uptake entry was “Active” in series [7], 4.69 % ID/g with Brain [2] and 1.48 % ID/g in the series with Brain [9]. The Ki in series [8] was > 242 nM.
In the case of `CN(C)c1ccc(-c2cnc3cc(OCC[18F])ccc3n2)cc1`, the Drug uptake result in the series on Mus musculus [10] was “Active”; with Mus musculus [11], “Active”; in series [7], “Not Active”; in the series on Mus musculus [12], “Active”; with Brain [2] it was 4.69 % ID/g; in the series with Brain [9], 1.48 % ID/g. In the series on Mus musculus [13], the Drug uptake result is reported as “Active”. Besides, the Ratio in the series on Brain [1] is recorded as 2.36. Besides, the Ki in [8] was determined as 0.895 nM.
Consider `CN(C)c1ccc(-c2cnc3ccc(OCC[18F])cc3n2)cc1`, for which the Ratio in the series with Brain [1] came out at 3.91. The same compound came in with a Ki in series [8] of 111 nM. For the same compound, the Drug uptake in the series on Brain [2] is on record as 4.69 % ID/g; in the series with Brain [9], 1.48 % ID/g.
As to `Nc1ccc(-c2cnc3ccc(OCC[18F])cc3n2)cc1`, the Ratio in the series with Brain [1] is reported as 2.36. Moreover, the values for the Drug uptake entry (in series [7]; in the series with Brain [2]; with Brain [9]) were “Active”, 4.69 % ID/g and 1.48 % ID/g, respectively. Besides, the Ki in series [8] is > 242 nM.

The record behind these values is ChEMBL document CHEMBL2407085, “Structure-Activity Relationships and in Vivo Evaluation of Quinoxaline Derivatives for PET Imaging of β-Amyloid Plaques” (ACS Med Chem Lett, 2013).
